Measurements published in US4684664A, “Derivatives of β-(4-isocyano-1,2,3,4-diepoxycyclopentyl) acrylic acid” (Kureha Kagaku Kogyo Kabushiki Kaisha, priority 1984, dated 1987).
In brackets after ≈: the same amount, converted by molar mass.

Assays:
Type in all cases: cell-based
[1] = system: Staphylococcus aureus FDA 209PJc-1; experiment: Antibacterial activity, agar-dilution MIC, organism No. 1; details: Staphylococcus aureus, FDA209PJC1; Organism No. 1, bouillon-agar; read-out: Minimum Inhibitory Concentration
How it was run: (§1)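 Bouillon-agar culture medium served for the agar-dilution test; inhibitory endpoint expressed per ml of medium in μg.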

[2] = system: Staphylococcus aureus Terajima; experiment: Antibacterial activity, agar-dilution MIC, organism No. 2; details: Staphylococcus aureus; Organism No. 2, bouillon-agar; read-out: Minimum Inhibitory Concentration
How it was run: as §1

[3] = system: Staphylococcus aureus MS 353; experiment: Antibacterial activity, agar-dilution MIC, organism No. 3; details: Staphylococcus aureus, MS353; Organism No. 3, bouillon-agar; read-out: Minimum Inhibitory Concentration
How it was run: as §1

[4] = system: Streptococcus pyogenes Cook; experiment: Antibacterial activity, agar-dilution MIC, organism No. 4; details: Streptococcus pyogenes; Organism No. 4, bouillon-agar; read-out: Minimum Inhibitory Concentration
How it was run: as §1

[5] = system: Escherichia coli NIHJ-JC-2; experiment: Antibacterial activity, agar-dilution MIC, organism No. 5; details: Escherichia coli, NIHJJC2; Organism No. 5, bouillon-agar; read-out: Minimum Inhibitory Concentration
How it was run: as §1

[6] = system: Escherichia coli K12 C600 IAM 1264; experiment: Antibacterial activity, agar-dilution MIC, organism No. 6; details: Escherichia coli, IAM1264; Organism No. 6, bouillon-agar; read-out: Minimum Inhibitory Concentration
How it was run: as §1

[7] = system: Klebsiella pneumoniae PCI-602; experiment: Antibacterial activity, agar-dilution MIC, organism No. 7; details: Klebsiella pneumoniae, PCI602; Organism No. 7, bouillon-agar; read-out: Minimum Inhibitory Concentration
How it was run: as §1

[8] = system: Salmonella typhimurium IID 971; experiment: Antibacterial activity, agar-dilution MIC, organism No. 8; details: Salmonella enterica; Organism No. 8, bouillon-agar; read-out: Minimum Inhibitory Concentration
How it was run: as §1

Salmonella typhi 901 = experiment: Antibacterial activity, agar-dilution MIC, organism No. 9; details: Salmonella enterica, TYPHI, read-out: Minimum Inhibitory Concentration
How it was run: as §1

[9] = system: Salmonella paratyphi-A 1015; experiment: Antibacterial activity, agar-dilution MIC, organism No. 10; details: Salmonella enterica, PARATYPHI, read-out: Minimum Inhibitory Concentration
How it was run: as §1

[10] = system: Salmonella shottmuelleri 8006; experiment: Antibacterial activity, agar-dilution MIC, organism No. 11; details: Salmonella, 8006; Organism No. 11, bouillon-agar; read-out: Minimum Inhibitory Concentration
How it was run: as §1

[11] = system: Salmonella enteritidis G 14; experiment: Antibacterial activity, agar-dilution MIC, organism No. 12; details: Salmonella enterica, ENTERITIDIS; Organism No. 12, bouillon-agar; read-out: Minimum Inhibitory Concentration
How it was run: as §1

[12] = system: Serratia marcescens IAM 1184; experiment: Antibacterial activity, agar-dilution MIC, organism No. 13; details: Serratia marcescens, IAM1184; Organism No. 13, bouillon-agar; read-out: Minimum Inhibitory Concentration
How it was run: as §1

[13] = system: Bacillus subtilis ATCC 6633; experiment: Antibacterial activity, agar-dilution MIC, organism No. 14; details: Bacillus subtilis, ATCC6633; Organism No. 14, bouillon-agar; read-out: Minimum Inhibitory Concentration
How it was run: as §1

[14] = system: Pseudomonas aeruginosa IFO 3445; experiment: Antibacterial activity, agar-dilution MIC, organism No. 15; details: Pseudomonas aeruginosa, IFO3445; Organism No. 15, bouillon-agar; read-out: Minimum Inhibitory Concentration
How it was run: as §1

[15] = system: Pseudomonas aeruginosa NCTC 10490; experiment: Antibacterial activity, agar-dilution MIC, organism No. 16; details: Pseudomonas aeruginosa, NCTC10490; Organism No. 16, bouillon-agar; read-out: Minimum Inhibitory Concentration
How it was run: as §1

[16] = system: Pseudomonas aeruginosa PAO 1; experiment: Antibacterial activity, agar-dilution MIC, organism No. 17; details: Pseudomonas aeruginosa, PAO1; Organism No. 17, bouillon-agar; read-out: Minimum Inhibitory Concentration
How it was run: as §1

[17] = system: Proteus morganii IFO 3848; experiment: Antibacterial activity, agar-dilution MIC, organism No. 18; details: Morganella morganii, IFO3848; Organism No. 18, bouillon-agar; read-out: Minimum Inhibitory Concentration
How it was run: as §1

[18] = system: Proteus mirabilis IFO 3849; experiment: Antibacterial activity, agar-dilution MIC, organism No. 19; details: Proteus mirabilis, IFO3849; Organism No. 19, bouillon-agar; read-out: Minimum Inhibitory Concentration
How it was run: as §1

Proteus vulgaris OX-19 = experiment: Antibacterial activity, agar-dilution MIC, organism No. 20; details: Proteus vulgaris, OX19; Organism No. 20, bouillon-agar; read-out: Minimum Inhibitory Concentration
How it was run: as §1

Proteus vulgaris HX-19 = experiment: Antibacterial activity, agar-dilution MIC, organism No. 21; details: Proteus vulgaris, HX19; Organism No. 21, bouillon-agar; read-out: Minimum Inhibitory Concentration
How it was run: as §1

[19] = system: Proteus rettgeri IFO 3850; experiment: Antibacterial activity, agar-dilution MIC, organism No. 22; details: Providencia rettgeri, IFO3850; Organism No. 22, bouillon-agar; read-out: Minimum Inhibitory Concentration
How it was run: as §1

[20] = system: Enterobacter aerogenes ATCC 13048; experiment: Antibacterial activity, agar-dilution MIC, organism No. 23; details: Klebsiella aerogenes, ATCC13048; Organism No. 23, bouillon-agar; read-out: Minimum Inhibitory Concentration
How it was run: as §1

Enterobacter cloacae 963 = experiment: Antibacterial activity, agar-dilution MIC, organism No. 24; details: Enterobacter cloacae, 963; Organism No. 24, bouillon-agar; read-out: Minimum Inhibitory Concentration
How it was run: as §1

[21] = system: Micrococcus luteus ATCC 9341; experiment: Antibacterial activity, agar-dilution MIC, organism No. 25; details: Micrococcus luteus, ATCC9341; Organism No. 25, bouillon-agar; read-out: Minimum Inhibitory Concentration
How it was run: as §1

[22] = system: Streptococcus pyogenes IFO 3340; experiment: Antibacterial activity, agar-dilution MIC, organism No. 26; details: Streptococcus pyogenes, IFO3340; Organism No. 26, bouillon-agar; read-out: Minimum Inhibitory Concentration
How it was run: as §1

[23] = system: Streptococcus faecium IFO 3826; experiment: Antibacterial activity, agar-dilution MIC, organism No. 27; details: Enterococcus faecium, IFO3826; Organism No. 27, bouillon-agar; read-out: Minimum Inhibitory Concentration
How it was run: as §1

[24] = system: Mycoplasma pneumoniae IID817; experiment: Antimycoplasmal activity, MIC by phenol red colour change, organism No. 28; details: Mycoplasma, IID817; Organism No. 28, PPLO broth + 1% glucose, 37° C.; read-out: Minimum Inhibitory Concentration (MIC)
Protocol: Mycoplasma pneumoniae IID817 was used as the test microorganism in a culture medium prepared by adding 1% of glucose to "PPLO broth (manufactured by Difco Co.) liquid culture medium" at 37° C. with phenol red as an indicator, thereby culturing the test microorganism.

[25] = system: Candida albicans IAM 4905; experiment: Antifungal activity, agar-dilution MIC, organism No. 29; details: Candida albicans, IAM4905; Organism No. 29, bouillon-agar; read-out: Minimum Inhibitory Concentration
How it was run: as §1

[26] = system: Aspergillus niger IFO 6342; experiment: Antifungal activity, agar-dilution MIC, organism No. 30; details: Aspergillus niger, IFO6342; Organism No. 30, bouillon-agar; read-out: Minimum Inhibitory Concentration
How it was run: as §1

SMILES	MIC [1]	MIC [2]	MIC [3]	MIC [4]	MIC [5]	MIC [6]	MIC [7]	MIC [8]	MIC (Salmonella typhi 901)	MIC [9]	MIC [10]	MIC [11]	MIC [12]	MIC [13]	MIC [14]	MIC [15]	MIC [16]	MIC [17]	MIC [18]	MIC (Proteus vulgaris OX-19)	further results
[C-]#[N+]C12CC3(/C=C/C(=O)N4CCCC4)OC3C1O2 (stereo not drawn) [compound 21]	50 µg/mL (≈ 203 µM)	100 µg/mL (≈ 406 µM)	50 µg/mL (≈ 203 µM)	100 µg/mL (≈ 406 µM)	> 200 µg/mL	> 200 µg/mL	50 µg/mL (≈ 203 µM)	100 µg/mL (≈ 406 µM)	50 µg/mL (≈ 203 µM)	100 µg/mL (≈ 406 µM)	50 µg/mL (≈ 203 µM)	50 µg/mL (≈ 203 µM)	> 200 µg/mL	200 µg/mL (≈ 812 µM)	> 200 µg/mL	> 200 µg/mL	> 200 µg/mL	50 µg/mL (≈ 203 µM)	> 200 µg/mL	25 µg/mL (≈ 102 µM)	MIC (Proteus vulgaris HX-19): 1.56 µg/mL (≈ 6.33 µM); MIC [19]: > 200 µg/mL; MIC [20]: > 200 µg/mL; MIC (Enterobacter cloacae 963): > 200 µg/mL; MIC [21]: 0.39 µg/mL (≈ 1.58 µM); MIC [22]: > 200 µg/mL; MIC [23]: > 200 µg/mL; MIC [24]: 1.56 µg/mL; MIC [25]: 6.25 µg/mL (≈ 25.4 µM); MIC [26]: 3.13 µg/mL (≈ 12.7 µM)
[C-]#[N+]C12CC3(/C=C/C(=O)N4CCOCC4)OC3C1O2 (stereo not drawn) [compound 22]	50 µg/mL (≈ 191 µM)	100 µg/mL (≈ 381 µM)	50 µg/mL (≈ 191 µM)	50 µg/mL (≈ 191 µM)	50 µg/mL (≈ 191 µM)	50 µg/mL (≈ 191 µM)	50 µg/mL (≈ 191 µM)	25 µg/mL (≈ 95.3 µM)	6.25 µg/mL (≈ 23.8 µM)	25 µg/mL (≈ 95.3 µM)	25 µg/mL (≈ 95.3 µM)	12.5 µg/mL (≈ 47.7 µM)	> 200 µg/mL	200 µg/mL (≈ 763 µM)	> 200 µg/mL	> 200 µg/mL	> 200 µg/mL	6.25 µg/mL (≈ 23.8 µM)	> 200 µg/mL	12.5 µg/mL (≈ 47.7 µM)	MIC (Proteus vulgaris HX-19): 1.56 µg/mL (≈ 5.95 µM); MIC [19]: > 200 µg/mL; MIC [20]: > 200 µg/mL; MIC (Enterobacter cloacae 963): > 200 µg/mL; MIC [21]: 0.39 µg/mL (≈ 1.49 µM); MIC [22]: 200 µg/mL (≈ 763 µM); MIC [23]: > 200 µg/mL; MIC [24]: 1.56 µg/mL; MIC [25]: 6.25 µg/mL (≈ 23.8 µM); MIC [26]: 3.13 µg/mL (≈ 11.9 µM)
